Laboratory results reported in ChEMBL document CHEMBL5291721, “A preclinical secondary pharmacology resource illuminates target-adverse drug reaction associations of marketed drugs” (Nat Commun, 2023).

Experiments:
Melanocortin receptor 3 = Melanocortin receptor 3 (Homo sapiens, UniProt P41968)
Progesterone receptor [1] = molecular target: T1, Progesterone receptor (Homo sapiens, UniProt P06401); assay type: functional
T1 sequence (P06401 whole entry): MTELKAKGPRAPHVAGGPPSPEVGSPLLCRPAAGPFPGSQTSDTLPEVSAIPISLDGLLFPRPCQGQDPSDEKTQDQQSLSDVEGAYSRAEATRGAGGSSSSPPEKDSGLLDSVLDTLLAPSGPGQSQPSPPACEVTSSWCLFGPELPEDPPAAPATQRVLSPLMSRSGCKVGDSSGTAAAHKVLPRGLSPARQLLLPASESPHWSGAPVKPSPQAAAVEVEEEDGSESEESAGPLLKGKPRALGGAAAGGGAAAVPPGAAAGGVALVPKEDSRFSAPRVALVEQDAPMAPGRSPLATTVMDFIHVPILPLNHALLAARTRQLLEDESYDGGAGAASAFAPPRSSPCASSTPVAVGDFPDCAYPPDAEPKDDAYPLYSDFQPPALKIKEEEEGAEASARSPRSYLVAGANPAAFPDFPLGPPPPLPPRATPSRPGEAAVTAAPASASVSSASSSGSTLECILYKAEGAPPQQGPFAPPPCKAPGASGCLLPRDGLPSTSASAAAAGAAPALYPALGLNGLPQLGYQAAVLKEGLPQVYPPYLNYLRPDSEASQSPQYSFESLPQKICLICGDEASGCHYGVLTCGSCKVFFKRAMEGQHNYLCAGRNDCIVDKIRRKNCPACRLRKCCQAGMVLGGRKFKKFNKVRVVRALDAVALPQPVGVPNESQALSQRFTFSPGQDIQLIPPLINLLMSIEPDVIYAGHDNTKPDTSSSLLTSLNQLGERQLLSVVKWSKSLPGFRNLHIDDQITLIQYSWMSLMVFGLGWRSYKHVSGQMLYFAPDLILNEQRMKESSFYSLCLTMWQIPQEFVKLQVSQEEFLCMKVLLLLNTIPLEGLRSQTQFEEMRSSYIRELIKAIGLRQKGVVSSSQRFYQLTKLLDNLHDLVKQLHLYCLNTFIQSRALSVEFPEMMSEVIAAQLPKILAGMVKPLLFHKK

[2] = molecular target: T2, Amine oxidase [flavin-containing] A (Homo sapiens, UniProt P21397); assay type: functional
T2 sequence (P21397 whole entry): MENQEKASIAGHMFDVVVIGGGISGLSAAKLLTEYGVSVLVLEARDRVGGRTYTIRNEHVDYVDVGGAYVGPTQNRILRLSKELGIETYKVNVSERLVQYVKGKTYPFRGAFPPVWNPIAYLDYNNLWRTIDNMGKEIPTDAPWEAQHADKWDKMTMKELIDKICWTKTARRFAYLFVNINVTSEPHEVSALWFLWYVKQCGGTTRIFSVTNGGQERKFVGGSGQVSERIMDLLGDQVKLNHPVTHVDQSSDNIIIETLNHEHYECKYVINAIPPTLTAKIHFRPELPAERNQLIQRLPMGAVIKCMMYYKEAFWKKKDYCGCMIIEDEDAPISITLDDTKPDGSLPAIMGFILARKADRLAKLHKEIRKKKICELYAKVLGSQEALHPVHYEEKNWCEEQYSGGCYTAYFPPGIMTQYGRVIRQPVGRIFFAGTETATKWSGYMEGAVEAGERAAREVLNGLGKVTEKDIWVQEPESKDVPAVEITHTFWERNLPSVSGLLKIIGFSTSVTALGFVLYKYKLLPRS

Progesterone receptor [3] = molecular target: T1, Progesterone receptor; assay type: functional; remark: listed apart in the source
Vasopressin V1a receptor = Vasopressin V1a receptor (Homo sapiens, UniProt P37288)
Sequence of Vasopressin V1a receptor (P37288 whole entry): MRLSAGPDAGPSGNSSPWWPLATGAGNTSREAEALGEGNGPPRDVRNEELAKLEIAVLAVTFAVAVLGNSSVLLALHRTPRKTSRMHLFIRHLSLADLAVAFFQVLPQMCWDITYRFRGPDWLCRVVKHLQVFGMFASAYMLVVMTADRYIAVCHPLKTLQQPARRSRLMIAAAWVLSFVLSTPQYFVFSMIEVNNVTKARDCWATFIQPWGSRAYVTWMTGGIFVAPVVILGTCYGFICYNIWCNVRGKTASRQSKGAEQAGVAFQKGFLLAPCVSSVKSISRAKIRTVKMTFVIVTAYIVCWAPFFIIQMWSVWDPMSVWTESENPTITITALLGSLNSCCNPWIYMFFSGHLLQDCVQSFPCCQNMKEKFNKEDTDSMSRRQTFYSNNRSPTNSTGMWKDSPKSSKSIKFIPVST

[4] = molecular target: T3, 5-hydroxytryptamine receptor 3A (Homo sapiens, UniProt P46098); assay type: functional
T3 sequence (P46098 whole entry): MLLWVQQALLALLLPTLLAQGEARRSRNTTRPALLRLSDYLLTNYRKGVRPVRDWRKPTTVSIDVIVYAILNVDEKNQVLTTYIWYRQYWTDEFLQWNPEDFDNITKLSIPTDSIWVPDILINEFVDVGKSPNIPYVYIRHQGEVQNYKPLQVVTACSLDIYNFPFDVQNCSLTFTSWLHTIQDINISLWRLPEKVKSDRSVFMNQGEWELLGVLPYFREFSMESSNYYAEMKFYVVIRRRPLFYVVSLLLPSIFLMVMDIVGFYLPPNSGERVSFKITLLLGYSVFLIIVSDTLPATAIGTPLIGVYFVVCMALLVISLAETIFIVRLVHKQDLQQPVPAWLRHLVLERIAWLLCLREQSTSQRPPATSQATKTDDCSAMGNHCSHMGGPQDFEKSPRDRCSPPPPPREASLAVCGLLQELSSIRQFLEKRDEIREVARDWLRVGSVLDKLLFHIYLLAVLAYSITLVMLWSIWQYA

[5] = molecular target: T4, Muscarinic acetylcholine receptor M2 (Homo sapiens, UniProt P08172); assay type: functional, cell-based
T4 sequence (P08172 whole entry): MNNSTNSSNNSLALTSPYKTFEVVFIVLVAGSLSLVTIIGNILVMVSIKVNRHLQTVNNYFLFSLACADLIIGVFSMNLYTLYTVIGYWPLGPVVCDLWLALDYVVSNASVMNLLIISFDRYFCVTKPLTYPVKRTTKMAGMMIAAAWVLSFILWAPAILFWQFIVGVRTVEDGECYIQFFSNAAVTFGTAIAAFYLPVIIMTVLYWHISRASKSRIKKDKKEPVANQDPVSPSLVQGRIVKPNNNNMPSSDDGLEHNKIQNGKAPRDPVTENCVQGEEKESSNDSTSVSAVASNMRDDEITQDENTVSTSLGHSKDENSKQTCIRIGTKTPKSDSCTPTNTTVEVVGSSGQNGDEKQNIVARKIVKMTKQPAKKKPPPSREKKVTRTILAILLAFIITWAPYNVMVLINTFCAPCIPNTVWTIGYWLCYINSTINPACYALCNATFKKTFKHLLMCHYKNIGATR

[6] = molecular target: Beta-2 adrenergic receptor (Homo sapiens, UniProt P07550)
Sequence of Beta-2 adrenergic receptor (P07550 whole entry): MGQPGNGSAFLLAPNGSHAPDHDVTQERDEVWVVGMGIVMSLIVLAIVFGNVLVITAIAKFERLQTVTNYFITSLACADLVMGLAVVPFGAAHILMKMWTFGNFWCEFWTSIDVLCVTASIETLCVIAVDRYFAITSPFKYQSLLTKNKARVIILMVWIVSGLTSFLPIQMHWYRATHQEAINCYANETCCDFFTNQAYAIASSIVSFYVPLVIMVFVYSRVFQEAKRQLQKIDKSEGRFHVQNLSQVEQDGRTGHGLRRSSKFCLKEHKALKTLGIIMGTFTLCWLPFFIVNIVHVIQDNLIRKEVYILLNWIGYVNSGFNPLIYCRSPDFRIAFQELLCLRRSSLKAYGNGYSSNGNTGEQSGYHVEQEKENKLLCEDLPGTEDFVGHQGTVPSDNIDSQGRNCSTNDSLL
Further: assay procedure not described here.

Sequence of Melanocortin receptor 3 (P41968 whole entry): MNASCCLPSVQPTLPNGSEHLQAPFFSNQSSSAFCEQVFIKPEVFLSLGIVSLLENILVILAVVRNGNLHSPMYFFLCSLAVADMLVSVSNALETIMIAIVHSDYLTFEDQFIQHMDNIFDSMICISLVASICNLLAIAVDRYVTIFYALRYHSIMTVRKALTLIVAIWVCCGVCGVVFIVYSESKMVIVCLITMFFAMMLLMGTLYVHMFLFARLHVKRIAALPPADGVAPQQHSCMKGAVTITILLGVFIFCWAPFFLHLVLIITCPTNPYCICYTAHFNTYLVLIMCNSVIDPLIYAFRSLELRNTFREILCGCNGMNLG

Compound	AC50 (Melanocortin receptor 3) [µM]	AC50 (Progesterone receptor [1]) [µM]	AC50 [2] [µM]	AC50 (Progesterone receptor [3]) [µM]	AC50 (Vasopressin V1a receptor) [µM]	AC50 [4] [µM]	AC50 [5] [µM]	AC50 [6] [µM]
CCOc1cc([C@@H](CS(C)(=O)=O)N2C(=O)c3cccc(NC(C)=O)c3C2=O)ccc1OC	> 30	> 30	> 30	> 30	> 30	> 30	> 30	
CC(C(=O)O)c1ccc2oc(-c3ccc(Cl)cc3)nc2c1 (configuration not stated) [BENOXAPROFEN]	> 30	> 30	26	> 30		> 30	> 30	> 30
CC1(C)S[C@@H]2[C@H](NC(=O)C(C(=O)O)c3ccccc3)C(=O)N2[C@H]1C(=O)O (some centres not stated) [CARBENICILLIN]	> 30	> 30	> 30	> 30	> 30	> 30	> 30	
Cc1nnc(SCC2=C(C(=O)O)N3C(=O)[C@@H](NC(=O)Cn4cnnn4)[C@H]3SC2)s1 [CEFAZOLIN]	> 300	> 300	> 300	> 300	> 300	> 300	> 300	
CC(C)(O/N=C(\C(=O)N[C@@H]1C(=O)N2C(C(=O)[O-])=C(C[n+]3ccccc3)CS[C@H]12)c1csc(N)n1)C(=O)O [CEFTAZIDIME]	> 300	> 300	> 300		> 300	> 300	> 300	
CC(C)NC(=N)NC(=N)Nc1ccc(Cl)c(Cl)c1 [CHLORPROGUANIL]			> 30			> 30		
CCCNC(=O)NS(=O)(=O)c1ccc(Cl)cc1 [CHLORPROPAMIDE]	> 30		> 10		> 30	> 30	> 10	> 10
Cc1cc(C2CCCCC2)n(O)c(=O)c1 [CICLOPIROX]	> 30	> 30	> 30	> 30			> 30	
C[N+](C)(C)CCOP(=O)(O)OP(=O)([O-])OC[C@H]1O[C@@H](n2ccc(N)nc2=O)[C@H](O)[C@@H]1O [CITICOLINE]			> 30			> 30	> 30	
Clc1ccc(Cn2c(CN3CCCC3)nc3ccccc32)cc1 [CLEMIZOLE]	> 30		> 30		> 30	> 30	> 10	
CCC(=O)O[C@]1(C(=O)CCl)[C@@H](C)C[C@H]2[C@@H]3CCC4=CC(=O)C=C[C@]4(C)[C@@]3(F)[C@@H](O)C[C@@]21C [CLOBETASOL PROPIONATE]	> 30	0.053	> 30			> 30	> 30	
CC(C)Cc1ccc([C@H](C)C(=O)O)cc1 [DEXIBUPROFEN]	> 30	> 30	> 30	> 30	> 30	> 30	> 30	
O=C(O)Cc1ccccc1Nc1c(Cl)cccc1Cl [DICLOFENAC]	> 30		> 10		> 30	> 10	> 10	> 10
CNC[C@H](O)c1ccc(O)c(O)c1 [EPINEPHRINE]	> 30	> 30	> 30	> 30		> 30	> 30	
O=C(O)Cc1ccccc1Oc1ccc(Cl)cc1Cl [FENCLOFENAC]	> 30		> 10		> 10	> 30	> 10	> 10
Cc1onc(-c2c(F)cccc2Cl)c1C(=O)N[C@@H]1C(=O)N2[C@@H]1SC(C)(C)[C@@H]2C(=O)O [FLOXACILLIN]	> 30	> 30	> 30	> 30	> 30	> 30	> 30	
Cc1ccc(C)c(OCCCC(C)(C)C(=O)O)c1 [GEMFIBROZIL]	> 30		> 10		> 10	> 30	> 10	> 10
CC[C@H](C)C(=O)O[C@H]1C[C@@H](C)C=C2C=C[C@H](C)[C@H](CC[C@@H]3C[C@@H](O)CC(=O)O3)[C@H]21 [LOVASTATIN]	> 30		> 10		> 10	> 30	> 10	> 10
CC[C@@H](CO)NC(=O)[C@@H]1C=C2c3cccc4c3c(cn4C)C[C@H]2N(C)C1 [METHYSERGIDE]	> 30		> 10		> 30	> 30	> 30	> 10
CN1Cc2c(N)cccc2C(c2ccccc2)C1 (configuration not stated) [NOMIFENSINE]	> 30	> 30	> 30	> 30	> 30	> 30	> 30	
CC(CN1c2ccccc2Sc2ccccc21)N(C)C (configuration not stated) [PROMETHAZINE]	31.9		> 10		> 10	> 30	0.322	> 10
S=P(N1CC1)(N1CC1)N1CC1 [THIOTEPA]	> 30	> 30	> 30	> 30	> 30	> 30		
CC(C)C[C@H](NC(=O)[C@@H](O)[C@H](N)Cc1ccccc1)C(=O)O [UBENIMEX]	> 30	> 30	> 30	> 30		> 30	> 30	
CC(C)[C@H](N)C(=O)OCCOCn1cnc2c(=O)[nH]c(N)nc21 [VALACYCLOVIR]	> 30		> 10		> 10	> 30	> 10	> 10
O=C1Cc2cc(CCN3CCN(c4nsc5ccccc45)CC3)c(Cl)cc2N1 [ZIPRASIDONE]	> 30		> 10		> 10	> 10	> 10	> 30
